Test results reported in the NIST ThermoML archive (doi:10.1021/je200128y).
“And” between values parts separate entries of the source, which are not always exact repeats. Equal values may be shown once. ± gives the expanded uncertainty stated by the source.

Conditions: Transpiration method

c1ccc(Nc2ccccc2)cc1 [diphenylamine]
Conditions	vapor or sublimation pressure
293.1 K, Crystal	4e-05 ± 1e-05 kPa
293.7 K, Crystal	4e-05 ± 1e-05 kPa
296.2 K, Crystal	6e-05 ± 1e-05 kPa
298.2 K, Crystal	7e-05 ± 1e-05 kPa
298.4 K, Crystal	8e-05 ± 1e-05 kPa
300.2 K, Crystal	0.0001 ± 1e-05 kPa
301 K, Crystal	0.00012 ± 1e-05 kPa
302.1 K, Crystal	0.00013 ± 1e-05 kPa
302.7 K, Crystal	0.00015 ± 1e-05 kPa
303.2 K, Crystal	0.00014 ± 1e-05 kPa
305.2 K, Crystal	0.00017 ± 2e-05 kPa
305.5 K, Crystal	0.0002 ± 2e-05 kPa
308 K, Crystal	0.00024 ± 2e-05 kPa and 0.00025 ± 2e-05 kPa
308.2 K, Crystal	0.00026 ± 2e-05 kPa
309.1 K, Crystal	0.00029 ± 3e-05 kPa
309.3 K, Crystal	0.0003 ± 3e-05 kPa
310.7 K, Crystal	0.00034 ± 3e-05 kPa
312.3 K, Crystal	0.00042 ± 4e-05 kPa
313 K, Crystal	0.00045 ± 4e-05 kPa
313.7 K, Crystal	0.0005 ± 4e-05 kPa
315 K, Crystal	0.00054 ± 5e-05 kPa and 0.00055 ± 5e-05 kPa
315.4 K, Crystal	0.00061 ± 5e-05 kPa
315.7 K, Crystal	0.0006 ± 5e-05 kPa
316 K, Crystal	0.00065 ± 6e-05 kPa
316.7 K, Crystal	0.0007 ± 6e-05 kPa
317.2 K, Crystal	0.00075 ± 7e-05 kPa
318 K, Crystal	0.00083 ± 7e-05 kPa
318.2 K, Crystal	0.00086 ± 8e-05 kPa
318.3 K, Crystal	0.00085 ± 7e-05 kPa
318.7 K, Crystal	0.00085 ± 7e-05 kPa
320.3 K, Crystal	0.00111 ± 0.0001 kPa
320.7 K, Crystal	0.0011 ± 0.0001 kPa
322.3 K, Crystal	0.00138 ± 0.00012 kPa
323.2 K, Crystal	0.00153 ± 0.00013 kPa and 0.00143 ± 0.00013 kPa
324.1 K, Crystal	0.00169 ± 0.00015 kPa
324.7 K, Crystal	0.00164 ± 0.00014 kPa
325.2 K, Crystal	0.00186 ± 0.00016 kPa
326.7 K, Crystal	0.00203 ± 0.00018 kPa
328.3 K, Liquid	0.00245 ± 0.00021 kPa
332.2 K, Liquid	0.00343 ± 0.0003 kPa
335.4 K, Liquid	0.00438 ± 0.00038 kPa
338.1 K, Liquid	0.00522 ± 0.00046 kPa
341.2 K, Liquid	0.00684 ± 0.0006 kPa
343.2 K, Liquid	0.0081 ± 0.00071 kPa
346.1 K, Liquid	0.00963 ± 0.00084 kPa
348.2 K, Liquid	0.01174 ± 0.001 kPa
353.1 K, Liquid	0.01698 ± 0.0015 kPa
357.2 K, Liquid	0.02181 ± 0.0019 kPa
358.2 K, Liquid	0.02355 ± 0.0021 kPa
360.2 K, Liquid	0.02829 ± 0.0025 kPa
363 K, Liquid	0.0322 ± 0.0028 kPa
363.1 K, Liquid	0.03321 ± 0.0029 kPa
366.1 K, Liquid	0.04193 ± 0.0037 kPa
368.1 K, Liquid	0.04848 ± 0.0042 kPa
368.3 K, Liquid	0.04791 ± 0.0042 kPa
371.9 K, Liquid	0.06108 ± 0.0053 kPa
373.1 K, Liquid	0.06621 ± 0.0058 kPa
